Data from patent US4051259A, “Phenoxyacetic acid amide” (Les Laboratoires Bruneau & Cie, priority 1975, dated 1977).

What was measured:
rat = assay: anorexigenic activity (ED50) by the method of LeDouarec; type: in vivo; conditions: for ED50: rat, po, read-out: ED50 po (anorexia); for anorexigenic activity (in words): comparison of results within the table
Excerpt: (§1) The toxicity (LD50) has been determined in the mice by the method of Karber and Behrens (Arch. Expl. Pathol. Pharmacol., 1931, 162, 48) and the anorexigenic activity (ED50) in the rat by the method of LeDouarec (J. Pharmacol. Paris 1970, 1, 419-22).

[1] = toxicity (LD50) by the method of Karber and Behrens; type: in vivo, mice; conditions: mouse, in vivo; mice, po
Excerpt: as §1

mice = assay: as above; type: in vivo; conditions: for toxicity (in words): comparison of results within the table
Excerpt: as §1

Row | SMILES | ED50 (rat) | LD50 [1] | also measured
1 | CCNc1ccc(OCC(=O)NC(C)Cc2cccc(C(F)(F)F)c2)cc1 (stereo not drawn) [LB 359] | 15 mg/kg | 1600 mg/kg | –
2 | CNc1ccc(OCC(=O)NC(C)Cc2cccc(C(F)(F)F)c2)cc1 (stereo not drawn) [LB 367] | 12 mg/kg | 800 mg/kg | –
3 | CCCNc1ccc(OCC(=O)NC(C)Cc2cccc(C(F)(F)F)c2)cc1 (stereo not drawn) [LB 368] | 20 mg/kg | > 1600 mg/kg | –
4 | CC(C)CNc1ccc(OCC(=O)NC(C)Cc2cccc(C(F)(F)F)c2)cc1 (stereo not drawn) [LB 369] | 25 mg/kg | > 2000 mg/kg | –
5 | CCCCCNc1ccc(OCC(=O)NC(C)Cc2cccc(C(F)(F)F)c2)cc1 (stereo not drawn) [LB 411, 1-methyl-2-(m-trifluoromethylphenyl)-ethylamide of p-pentylaminophenoxyacetic acid] | 10 mg/kg | 4000 mg/kg | anorexigenic activity (in words) (rat): particularly high; anorexigenic activity (in words) (rat; listed as n-pentyl derivative): outstanding anorexia-inducing properties; intensity of intoxication symptoms (mice; at doses near the LD50): relatively weak; intoxication symptoms (mice; at doses near the LD50, first hour, then later): hypomotility and hypothermia during the first hour than tremor and convulsions; toxicity (in words) (mice): very low; toxicity (in words) (mice; listed as n-pentyl derivative): low toxicity; doses at which intoxication symptoms appear (mice; doses relative to LD50): only at doses near of the LD50
6 | CCCCCCNc1ccc(OCC(=O)NC(C)Cc2cccc(C(F)(F)F)c2)cc1 (stereo not drawn) [LB 446] | 45 mg/kg | > 4000 mg/kg | –
7 | CCCCNc1ccc(OCC(=O)NC(C)Cc2cccc(C(F)(F)F)c2)cc1 (stereo not drawn) [LB 448] | 20 mg/kg | > 2000 mg/kg | –
